Results published in patent US20240270762A1, “PENICILLIN-BINDING PROTEIN INHIBITORS” (priority 2021, published 2024).
pEC50: −log10 of the molar value. Values after ≈ are worked out from the molar mass of the structure shown.

Key:
A. baumannii PBP1a = target: T1, A. baumannii PBP1a (Acinetobacter baumannii, UniProt A0ABX6CK30); experiment: Bocillin-FL competition binding via gel filtration, A. baumannii PBP1a; settings: competition binding assay using Bocillin-FL via gel filtration; read-out: A. baumannii PBP1a Potency
T1 sequence (A0ABX6CK30 1-851): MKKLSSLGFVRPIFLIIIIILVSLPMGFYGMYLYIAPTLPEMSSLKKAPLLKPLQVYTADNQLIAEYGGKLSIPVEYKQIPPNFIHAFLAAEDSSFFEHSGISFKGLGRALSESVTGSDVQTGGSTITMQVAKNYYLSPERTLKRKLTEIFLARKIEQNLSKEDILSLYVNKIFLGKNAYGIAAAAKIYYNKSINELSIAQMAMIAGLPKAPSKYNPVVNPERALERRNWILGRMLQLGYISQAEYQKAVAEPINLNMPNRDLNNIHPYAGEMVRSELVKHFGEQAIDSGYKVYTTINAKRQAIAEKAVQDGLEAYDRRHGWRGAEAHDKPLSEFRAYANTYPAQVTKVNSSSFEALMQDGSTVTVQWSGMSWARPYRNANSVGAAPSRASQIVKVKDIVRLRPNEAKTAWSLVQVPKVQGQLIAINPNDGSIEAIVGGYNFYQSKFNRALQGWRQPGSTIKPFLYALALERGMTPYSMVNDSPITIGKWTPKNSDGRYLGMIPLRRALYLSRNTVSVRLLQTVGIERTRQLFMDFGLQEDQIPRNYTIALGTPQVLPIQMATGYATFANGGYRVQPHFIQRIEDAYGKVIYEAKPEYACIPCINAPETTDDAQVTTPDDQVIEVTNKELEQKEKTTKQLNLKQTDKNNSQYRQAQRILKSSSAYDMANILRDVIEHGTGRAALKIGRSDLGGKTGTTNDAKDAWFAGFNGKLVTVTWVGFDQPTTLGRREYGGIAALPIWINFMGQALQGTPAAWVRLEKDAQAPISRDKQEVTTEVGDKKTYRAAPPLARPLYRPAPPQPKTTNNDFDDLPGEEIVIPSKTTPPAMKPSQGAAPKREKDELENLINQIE
In short: (§1)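 Enzyme pre-incubated with increasing inhibitor concentrations, then Bocillin-FL added for 15 min further incubation. Bocillin-FL-bound PBP separated by gel filtration and fluorescence read. EC50 from fitting fraction PBP bound vs inhibitor concentration to a Hill-type equation (ymin, ymax, n).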

A. baumannii PBP2 = A. baumannii PBP2 (Acinetobacter baumannii, UniProt D0C8Z9); experiment: Bocillin-FL competition binding via gel filtration, A. baumannii PBP2
In short: as §1

P. aeruginosa ATCC 27853 = experiment: microbe, parasite or virus in culture; type: cell-based; settings: Pseudomonas aeruginosa, ATCC27853, read-out: Minimum inhibitory concentration, P. aeruginosa ATCC 27853
A. baumannii ATCC 17978 = experiment: microbe, parasite or virus in culture; type: cell-based; settings: Acinetobacter baumannii, ATCC17978, read-out: MIC, A. baumannii ATCC 17978
A. baumannii ATCC 19606 = experiment: microbe, parasite or virus in culture; type: cell-based; settings: Acinetobacter baumannii, ATCC19606, read-out: MIC, A. baumannii ATCC 19606
P. aeruginosa ATCC 35151 = experiment: microbe, parasite or virus in culture; type: cell-based; settings: Pseudomonas aeruginosa, ATCC35151, read-out: Minimum inhibitory concentration, P. aeruginosa ATCC 35151
A. baumannii 1258916 = experiment: microbe, parasite or virus in culture; type: cell-based, Acinetobacter baumannii; settings: Acinetobacter baumannii, 1258916, read-out: MIC, A. baumannii 1258916
A. baumannii CDC-0033 = experiment: microbe, parasite or virus in culture; type: cell-based; settings: Acinetobacter baumannii, CDC0033, read-out: MIC, A. baumannii CDC-0033
A. baumannii CDC-0036 = experiment: microbe, parasite or virus in culture; type: cell-based; settings: Acinetobacter baumannii, CDC0036, read-out: MIC, A. baumannii CDC-0036
A. baumannii CDC-0045 = experiment: microbe, parasite or virus in culture; type: cell-based; settings: Acinetobacter baumannii, CDC0045, read-out: MIC, A. baumannii CDC-0045
[1] = tested on: B. humptydooensis ATCC BAA-2767; experiment: microbe, parasite or virus in culture; type: cell-based; settings: Burkholderia humptydooensis, ATCCBAA2767, read-out: Minimum inhibitory concentration (MIC), B. humptydooensis ATCC BAA-2767
P. aeruginosa CDC-0110 = experiment: microbe, parasite or virus in culture; type: cell-based; settings: Pseudomonas aeruginosa, CDC0110, read-out: Minimum inhibitory concentration, P. aeruginosa CDC-0110

Chain of A. baumannii PBP2 (D0C8Z9 whole entry): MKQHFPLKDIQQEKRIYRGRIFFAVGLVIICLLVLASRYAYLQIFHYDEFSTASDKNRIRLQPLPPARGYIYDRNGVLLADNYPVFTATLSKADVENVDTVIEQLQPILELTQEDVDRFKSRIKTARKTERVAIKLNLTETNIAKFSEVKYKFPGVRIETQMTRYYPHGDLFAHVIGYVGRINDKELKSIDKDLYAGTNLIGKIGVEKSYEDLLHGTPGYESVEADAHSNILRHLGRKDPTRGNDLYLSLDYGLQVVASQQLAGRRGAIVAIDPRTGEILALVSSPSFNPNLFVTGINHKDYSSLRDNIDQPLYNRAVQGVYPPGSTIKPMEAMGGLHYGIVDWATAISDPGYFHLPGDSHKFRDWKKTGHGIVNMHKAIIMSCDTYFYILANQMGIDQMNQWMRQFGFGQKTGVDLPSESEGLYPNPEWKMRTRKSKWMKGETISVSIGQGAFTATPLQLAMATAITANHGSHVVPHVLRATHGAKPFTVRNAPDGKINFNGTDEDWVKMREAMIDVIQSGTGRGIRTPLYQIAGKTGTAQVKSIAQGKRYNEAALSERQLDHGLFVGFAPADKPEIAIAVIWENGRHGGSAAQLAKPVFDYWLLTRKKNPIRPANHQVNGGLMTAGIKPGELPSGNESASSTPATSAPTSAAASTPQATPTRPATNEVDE

With `O=C(O)c1c(F)ccc2c1OB(O)[C@@H](NC(=O)C(NC(=O)N1CCN(C3CCN(C(=O)Nc4ccc(F)c(O)c4)CC3)C(=O)C1=O)c1cc(F)c(O)c(O)c1Cl)C2` (stereo partly drawn) [Example 480, (3R)-3-(2-(2-chloro-5-fluoro-3,4-dihydroxyphenyl)-2-(4-(1-((4-fluoro-3-hydroxyphenyl)carbamoyl)piperidin-4-yl)-2,3-dioxopiperazine-1-carboxamido)acetamido)-7-fluoro-2-hydroxy-3,4-dihydro-2H-benzo[e][1,2]oxaborinine-8-carboxylic acid] the pEC50 (A. baumannii PBP1a) was > 5.00, the pEC50 (A. baumannii PBP2) was 4.30 to 5.00 and the MIC (P. aeruginosa ATCC 27853) was 2 to 4 µg/mL (≈ 2.44 to 4.88 µM). For the same compound, the MIC (A. baumannii ATCC 17978) was < 1 µg/mL, the MIC (A. baumannii ATCC 19606) was < 1 µg/mL and the MIC (P. aeruginosa ATCC 35151) was < 1 µg/mL. For the same compound, the MIC (A. baumannii 1258916) was < 1 µg/mL, the MIC (A. baumannii CDC-0033) was 2 to 4 µg/mL (≈ 2.44 to 4.88 µM) and the MIC (A. baumannii CDC-0036) was 2 to 4 µg/mL (≈ 2.44 to 4.88 µM). For the same compound, the MIC (A. baumannii CDC-0045) was < 1 µg/mL, the MIC [1] was 8 to 16 µg/mL (≈ 9.77 to 19.5 µM) and the MIC (P. aeruginosa CDC-0110) was 2 to 4 µg/mL (≈ 2.44 to 4.88 µM).

In the case of `O=C(O)c1c(F)ccc2c1OB(O)[C@@H](NC(=O)[C@H](NC(=O)N1CCN(C3CCN(C(=O)Nc4cc(O)cc(O)c4)CC3)C1=O)c1cc(F)c(O)c(O)c1Cl)C2` [Example 456, (R)-3-((R)-2-(2-chloro-5-fluoro-3,4-dihydroxyphenyl)-2-(3-(1-((3,5-dihydroxyphenyl)carbamoyl)piperidin-4-yl)-2-oxoimidazolidine-1-carboxamido)acetamido)-7-fluoro-2-hydroxy-3,4-dihydro-2H-benzo[e][1,2]oxaborinine-8-carboxylic acid], the pEC50 (A. baumannii PBP1a) was > 5.00, the pEC50 (A. baumannii PBP2) was > 5.00 and the MIC (P. aeruginosa ATCC 27853) was < 1 µg/mL. The MIC (A. baumannii ATCC 17978) was < 1 µg/mL, the MIC (A. baumannii ATCC 19606) was < 1 µg/mL and the MIC (P. aeruginosa ATCC 35151) was < 1 µg/mL. For the same compound, the MIC (A. baumannii 1258916) was < 1 µg/mL, the MIC (A. baumannii CDC-0033) was < 1 µg/mL and the MIC (A. baumannii CDC-0036) was < 1 µg/mL. For the same compound, the MIC (A. baumannii CDC-0045) was < 1 µg/mL, the MIC [1] was < 1 µg/mL and the MIC (P. aeruginosa CDC-0110) was < 1 µg/mL.

For `O=C(O)c1c(F)ccc2c1OB(O)[C@@H](NC(=O)[C@H](NC(=O)N1CCN(C3CCN(C(=O)c4cc(O)cc(O)c4)CC3)C1=O)c1cc(F)c(O)c(O)c1Cl)C2` (single isomer, unassigned) [Example 442], the pEC50 (A. baumannii PBP1a) was > 5.00, the pEC50 (A. baumannii PBP2) was > 5.00 and the MIC (P. aeruginosa ATCC 27853) was < 1 µg/mL. For the same compound, the MIC (A. baumannii ATCC 17978) was < 1 µg/mL, the MIC (A. baumannii ATCC 19606) was < 1 µg/mL and the MIC (P. aeruginosa ATCC 35151) was < 1 µg/mL. For the same compound, the MIC (A. baumannii 1258916) was < 1 µg/mL, the MIC (A. baumannii CDC-0033) was < 1 µg/mL and the MIC (A. baumannii CDC-0036) was < 1 µg/mL. The MIC (A. baumannii CDC-0045) was < 1 µg/mL, the MIC [1] was < 1 µg/mL and the MIC (P. aeruginosa CDC-0110) was < 1 µg/mL.

Work on `O=C(O)c1c(F)ccc2c1OB(O)[C@@H](NC(=O)C(NC(=O)N1CCN(C3CCN(C(=O)Nc4cc(O)ccc4F)CC3)C(=O)C1=O)c1cc(F)c(O)c(O)c1Cl)C2` (stereo partly drawn) [Example 479, (3R)-3-(2-(2-chloro-5-fluoro-3,4-dihydroxyphenyl)-2-(4-(1-((2-fluoro-5-hydroxyphenyl)carbamoyl)piperidin-4-yl)-2,3-dioxopiperazine-1-carboxamido)acetamido)-7-fluoro-2-hydroxy-3,4-dihydro-2H-benzo[e][1,2]oxaborinine-8-carboxylic acid] yielded a pEC50 (A. baumannii PBP1a) of 4.30 to 5.00, a pEC50 (A. baumannii PBP2) of 4.30 to 5.00 and an MIC (P. aeruginosa ATCC 27853) of 2 to 4 µg/mL (≈ 2.44 to 4.88 µM). The MIC (A. baumannii ATCC 17978) was < 1 µg/mL, the MIC (A. baumannii ATCC 19606) was < 1 µg/mL and the MIC (P. aeruginosa ATCC 35151) was < 1 µg/mL. The MIC (A. baumannii 1258916) was < 1 µg/mL, the MIC (A. baumannii CDC-0033) was 2 to 4 µg/mL (≈ 2.44 to 4.88 µM) and the MIC (A. baumannii CDC-0036) was < 1 µg/mL. For the same compound, the MIC (A. baumannii CDC-0045) was < 1 µg/mL, the MIC [1] was 2 to 4 µg/mL (≈ 2.44 to 4.88 µM) and the MIC (P. aeruginosa CDC-0110) was < 1 µg/mL.

For `O=C(O)c1c(F)ccc2c1OB(O)[C@@H](NC(=O)[C@H](NC(=O)N1CCN(C3CCN(C(=O)Nc4cccc(O)c4)CC3)C1=O)c1cc(F)c(O)c(O)c1Cl)C2` [Example 445, (R)-3-((R)-2-(2-chloro-5-fluoro-3,4-dihydroxyphenyl)-2-(3-(1-((3-hydroxyphenyl)carbamoyl)piperidin-4-yl)-2-oxoimidazolidine-1-carboxamido)acetamido)-7-fluoro-2-hydroxy-3,4-dihydro-2H-benzo[e][1,2]oxaborinine-8-carboxylic acid], the pEC50 (A. baumannii PBP1a) was > 5.00, the pEC50 (A. baumannii PBP2) was > 5.00 and the MIC (P. aeruginosa ATCC 27853) was < 1 µg/mL. For the same compound, the MIC (A. baumannii ATCC 17978) was < 1 µg/mL, the MIC (A. baumannii ATCC 19606) was < 1 µg/mL and the MIC (P. aeruginosa ATCC 35151) was < 1 µg/mL. The MIC (A. baumannii 1258916) was < 1 µg/mL, the MIC (A. baumannii CDC-0033) was 2 to 4 µg/mL (≈ 2.59 to 5.18 µM) and the MIC (A. baumannii CDC-0036) was < 1 µg/mL. For the same compound, the MIC (A. baumannii CDC-0045) was < 1 µg/mL, the MIC [1] was < 1 µg/mL and the MIC (P. aeruginosa CDC-0110) was < 1 µg/mL.
